# Experimental data from patent US20250170096A1, “OXPHOS INHIBITORS FOR USE IN TREATING CANCER” (ImmunoMet Therapeutics, Inc., priority 2022, published 2025).
# What was measured:
# [1] = test system: OXPHOS; test: Pre- and post-treatment biopsies of patients receiving cancer therapies; type: in vivo; conditions: for Effect of therapy on OXPHOS, post-treatment versus pre-treatment biopsies: across cancers, named as the most significant therapies
# Description: Biopsies were collected from subjects undergoing treatment for cancer (FIG. 1A).
# [2] = test system: Patient derived xenograft cells; test: Growth of patient derived xenograft cells treated in vitro; type: cell-based; conditions: in vitro exposure of patient-derived xenograft cells to gemcitabine; FIG. 2
# Procedure: Patient derived xenograft cells were treated with the compound of Formula 1, Gemcitabine (Gem), or the compound of Formula 1 and gemcitabine together (FIG. 2). Cells treated with both Gem and Formula 1 grew slower than cells treated with Formula 1 or Gem alone.
compound,measurement,setting,value
N.N.O=C([O-])C1(C(=O)[O-])CCC1.[Pt+2] [carboplatin],"Effect of therapy on OXPHOS, post-treatment versus pre-treatment biopsies",[1],increase OXPHOS
same,OXPHOS following treatment,"[1]; breast cancer, endometrial cancer, NSCLC, ovarian cancer, FIG. 1G",increase in OXPHOS
O=P1(N(CCCl)CCCl)NCCCO1 (centres unmarked) [cyclophosphamide],"Effect of therapy on OXPHOS, post-treatment versus pre-treatment biopsies",[1],increase OXPHOS
same,OXPHOS following treatment,"[1]; breast cancer and sarcoma, FIG. 1F",increase in OXPHOS
COc1cccc2c1C(=O)c1c(O)c3c(c(O)c1C2=O)C[C@@](O)(C(=O)CO)C[C@@H]3O[C@H]1C[C@H](N)[C@H](O)[C@H](C)O1 [doxorubicin],"Effect of therapy on OXPHOS, post-treatment versus pre-treatment biopsies",[1],increase OXPHOS
same,OXPHOS following treatment,"[1]; bladder cancer, breast cancer, sarcoma, FIG. 1H",increase in OXPHOS
CNC(=O)c1ccc(N2C(=S)N(c3ccc(C#N)c(C(F)(F)F)c3)C(=O)C2(C)C)cc1F [enzalutamide],"Effect of therapy on OXPHOS, post-treatment versus pre-treatment biopsies",[1],increase OXPHOS
same,OXPHOS following treatment,"[1]; prostate cancer, FIG. 1D",increase in OXPHOS
C[C@]12CC[C@@H]3c4ccc(O)cc4C[C@@H](CCCCCCCCC[S+]([O-])CCCC(F)(F)C(F)(F)F)[C@H]3[C@@H]1CC[C@@H]2O (some centres unmarked) [fulvestrant],"Effect of therapy on OXPHOS, post-treatment versus pre-treatment biopsies",[1],increase OXPHOS
same,OXPHOS following treatment,"[1]; breast cancer, FIG. 1E",increase in OXPHOS
"Nc1ccn([C@@H]2O[C@H](CO)[C@@H](O)C2(F)F)c(=O)n1 [gemcitabine, Gemcitabine]",Sensitization of tumor cells to the compound of Formula 1,[2],sensitizes tumor cells to the compound of Formula 1
N#Cc1ccc(C(c2ccc(C#N)cc2)n2cncn2)cc1 [letrozole],"Effect of therapy on OXPHOS, post-treatment versus pre-treatment biopsies",[1],increase OXPHOS
same,OXPHOS following treatment,"[1]; breast cancer, FIG. 1E",increase in OXPHOS
CCNC(=O)[C@@H]1CCCN1C(=O)[C@H](CCCNC(=N)N)NC(=O)[C@H](CC(C)C)NC(=O)[C@@H](CC(C)C)NC(=O)[C@H](Cc1ccc(O)cc1)NC(=O)[C@H](CO)NC(=O)[C@H](Cc1c[nH]c2ccccc12)NC(=O)[C@H](Cc1c[nH]cn1)NC(=O)[C@@H]1CCC(=O)N1 [leuprolide],"Effect of therapy on OXPHOS, post-treatment versus pre-treatment biopsies",[1],increase OXPHOS
same,OXPHOS following treatment,"[1]; breast cancer and prostate cancer, FIG. 1C",increase in OXPHOS
CC(=O)O[C@H]1C(=O)[C@@]2(C)[C@H]([C@H](OC(=O)c3ccccc3)[C@]3(O)C[C@H](OC(=O)[C@H](O)[C@@H](NC(=O)c4ccccc4)c4ccccc4)C(C)=C1C3(C)C)[C@]1(OC(C)=O)CO[C@@H]1C[C@@H]2O [paclitaxel],"Effect of therapy on OXPHOS, post-treatment versus pre-treatment biopsies",[1],increase OXPHOS
same,OXPHOS following treatment,"[1]; breast cancer, endometrial cancer, NSCLC, ovarian cancer, FIG. 1I",increase in OXPHOS
